Reference: US11278492B2 (priority 2018, dated 2022)

Columns and labels:
rat = assay: 14-day sub-chronic toxicity in rat with nasal olanzapine delivery; format: in vivo; details: nasal delivery (data not shown)
[1] = Phase 1 clinical trial, plasma olanzapine pharmacokinetics; details: human, in vivo
Method: Randomization for Periods 1 and 2 was performed for each subject on Day 1.
In Period 1, subjects were assigned to 1 of 3 cohorts (n=12 per cohort). […] Dose administration occurred at Visit 2 on Day 1 (relative to each cohort). Each cohort was scheduled to allow time for Period 2 safety assessments to occur prior to dose escalation in the next cohort period 2 dosing. Subjects remained confined to the study site for 72 hours after dosing. Subjects returned to the study site on Days 5 and 6 (Visits 3 and 4) for follow-up assessments.
In Period 2, subjects returned to the study site after a washout period of at least 14 days. Subjects from each Period 1 cohort received a single dose of INP105 (5, 10 or 15 mg) or placebo in a 9:3 ratio, as outlined in Table 11. Dose administration occurred on Day 15. (Dosing was permitted to occur later than the calendar Day 15 as required for scheduling (up to 2 days) but not before Day 15.) Ascending-dose levels of INP105 (5, 10 or 15 mg) were administered to ascending cohort numbers as follows:
The following pharmacokinetic parameters were determined: Cmax, Tmax, Tlast, AUClast, and t1/2 where possible.

[2] = oral olanzapine tablets or disintegrating tablets, previously reported; cited from earlier work

## Cc1cc2c(s1)Nc1ccccc1N=C2N1CCN(C)CC1 [olanzapine]
rat
  macroscopic or microscopic findings: No macroscopic or microscopic findings
[1]; im, 5 mg
  Tmax: 19.8 to 21.6 min
[1]; inhaled or intranasal
  Tmax: 9.6 to 10.2 min
[1]; inhaled or intranasal, 15 mg
  Cmax: ≥ 30 ng/mL
[1]; po, 10 mg
  Tmax: 120 min
[2]
  time to peak plasma concentration (Tmax): 300 to 480 min
